{
  "source": "patent US20090123389A1",
  "about": "“Methods for modulating Th17 cell development in the treatment and prevention of cellulite” (priority 2007, published 2009)",
  "key": {"RORγt": {"test_system": "RORγt", "assay": "RORγt expression (real-time PCR) and RORγt retroviral transduction", "format": "cell-based, mouse", "conditions": "10 nM HF", "description": "T cells were harvested at the indicated times following activation, RNA was isolated and quantitative real-time PCR was performed using RORγt-specific primers and taqman probe. RORγt expression was normalized to Gapdh levels, and the data are presented as fold changes relative to naïve T cells.\nInfected T cells were expanded and restimulated on day 4 for intracellular staining. MIG- and MIG.RORγt-transduced cells were gated based on GFP fluorescence.\nFIG. 16C is a graph depicting the percent of Th17 cells (IL-17^+ IFNγ^−) in cultures of MIG-transduced (black bars) or MIG.RORγt-transduced (white bars) T cells as determined by intracellular cytokine staining were normalized to DMSO-treated cultures. The data are presented as mean values±SD on duplicate samples. […]\nQuantitative real-time PCR: T cells were activated as described above, collected at the indicated times and pellets were flash-frozen in liquid nitrogen. […] RORγt expression was determined after reverse transcription using the message sensor kit (Ambion, Austin, Tex.) per manufacturers instructions and taqman primers and probe as described elsewhere (I. Ivanov, et al., Cell 126, 1121, 2006). Sybrgreen quantitative real-time PCR was performed on T cell RNA samples following reverse transcription via SuperScript II first-strand cDNA synthesis kit (Invitrogen, Carlsbad, Calif.). […]"}, "CD4+ CD25− T cells": {"test_system": "CD4+ CD25− T cells", "assay": "Th17 differentiation / IL-17 expression of activated CD4+ CD25− T cells (TGFβ plus IL-6)", "format": "cell-based, mouse", "conditions": "for IC50: Mus musculus, T-cell", "description": "Low doses of halofuginone (HF) were tested to determine the ability of HF to enhance Treg differentiation, while suppressing Th17 differentiation. Naïve CD4+ T cells (CD4+ CD25−) were isolated from the spleen and peripheral lymph nodes of C57B/6 mice. T cells were then activated using anti-CD3 (0.3 μg/ml) and anti-CD28 (0.5 μg/ml) antibodies either in media alone (row 1, 4), TGFβ alone (3 ng/ml—row 2, 5) or TGFβ (3 ng/ml) plus IL-6 (30 ng/ml) (row 3, 6). […] T cells were cultured for 3 days and CD25 and Foxp3 expression (Treg marker genes) was determine by FACS staining and flow cytometric analyses. Simultaneously, T cells were harvested and re-stimulated for 4 hours using phorbol myristic acetate (PMA; 10 nM), Ionomycin (1 μM) and cytokine secretion was prevented using brefeldin A (20 μg/ml). Following stimulation, the production of IL-17 and IFNγ were determined by intracellular staining and analyzed via flow cytometry.\nThe dose-response of HF on CD4+ T cell proliferation, activation (i.e. CD25 upregulation) and differentiation to Th1, Th2 and Th17 lineages were evaluated. Purified murine naïve CD4+ CD25− T cells were activated using anti-CD3 (0.3 μg/ml) and anti-CD28 (0.5 μg/ml) antibodies and varying amounts of HF was added to each T cell culture condition (1.25 nM-40 nM). CD4+ T cell proliferation was monitored by CFSE dilution on day 3-post activation and CD25 expression was evaluated by FACS staining 2 days after activation. For T cell differentiation experiments, naïve T cells were activated as above in the presence of Th1 (IL-12 (20 ng/ml) plus anti-IL-4 (1.5 μg/ml)), Th2 (IL-4 (50 ng/ml) plus anti-IFNγ (0.5 mg/ml)) or Th17 (TGFβ (3 ng/ml) plus IL-6 (30 ng/ml)) polarizing conditions plus titrating amounts of HF (1.25 nM-40 nM) or MAZ1310 (40 nM). […] All cytokine expression was determined by intracellular staining following PMA+Ionomycin+Brefeldin A re-stimulation and all data was normalized to control (MAZ1310)-treated cells. […] Biol., vol. 80:1-8 (2006).\nCytokines, antibodies and T cell culture: Purified CD4^+ CD25^− T cells were activated in vitro as previously described (I. M. Djuretic et al., Nat Immunol 8, 145 (2007)) using 0.3 μg/ml hamster anti-mouse CD3 (clone 145-2C11) (ATCC—Manassas, Va.) and 0.5 μg/ml hamster anti-mouse CD28 (BD Pharmingen, San Jose, Calif.). Activated cell cultures were differentiated using the following combinations of cytokines and antibodies: iTreg=recombinant human TGFβ1 (3 ng/ml; R&D systems, Minneapolis, Minn.), Th17=TGFβ1 (3 ng/ml) plus recombinant mouse IL-6 (30 ng/ml, R&D systems). Th1 and Th2 differentiation was performed as previously described. (I. M. Djuretic et al., Nat Immunol 8, 145 (2007)). Human IL-2 supernatant (National Cancer Institute) was used in culture at 0.01 U/ml and was added at 48 hours-post activation when T cells were split into tissue culture wells lacking CD3 and CD28 antibodies, with the exception of Th17 cultures that were maintained in the absence of IL-2. All reagents were added at the time of T cell activation and again at 48-hours post activation unless indicated otherwise. For some experiments, purified CD4^+ CD25^− T cells, CD8^+ T cells or B cells were labeled with 1 μM CFSE (Invitrogen) prior to activation in accordance with manufacturers instructions.\nMAZ1310 was generated by chemical derivatization of halofuginone and was used at equal concentrations as a negative control."}},
  "note": "Where “and” joins values, the source holds several entries; their conditions need not be identical. Equal entries are not always repeated. Where two headings read alike, the source gives them in different places.",
  "data": [
    {"smiles": "O=C(CC1NCCCC1O)Cn1cnc2cc(Br)c(Cl)cc2c1=O", "note": "(racemic) [HF, 7-bromo-6-chloro-3-[3-(3-hydroxy-2-piperidinyl)-2-oxopropyl]-4(3H)-quinazolinone]", "values": [
      {"measurement": "upregulation of RORγt or RORγ during Th17 differentiation", "setting": "RORγt", "value": "did not interfere"},
      {"measurement": "IL-17 expression in cultures where IFNγ and IL-4 were blocked by neutralizing antibodies", "setting": "CD4+ CD25− T cells", "value": "reduced IL-17 expression"},
      {"measurement": "window of HF addition at start of culture giving most pronounced inhibition of IL-17 expression", "setting": "CD4+ CD25− T cells; 10 nM HF added at different times after activation", "value": 12, "unit": "h"},
      {"measurement": "IL-17 expression in T cells lacking Foxp3", "setting": "CD4+ CD25− T cells; 10 nM HF, TGFβ plus IL-6", "value": "strongly repressed"},
      {"measurement": "Th17 differentiation of T cells expressing STAT3C", "setting": "CD4+ CD25− T cells; 10 nM HF, TGFβ plus IL-6", "value": "remained capable of differentiating into Th17 cells"},
      {"measurement": "Il17 and Il17f mRNA expression", "setting": "CD4+ CD25− T cells; 10 nM HF, Th17 conditions, 4 days", "value": "impaired expression"},
      {"measurement": "IC50", "setting": "CD4+ CD25− T cells; 96 h, percentage of IL-17+ IFNγ− cells after restimulation on day 4-5, read-out: IC50 of repression of Th17 differentiation", "value": 3.6, "unit": "nM"},
      {"measurement": "IC50", "setting": "CD4+ CD25− T cells; in vitro, read-out: 50% inhibition of Th17 cell development", "value": "2 to 3", "unit": "nM"},
      {"measurement": "Th17 differentiation of cells expressing YFP or no transgene", "setting": "CD4+ CD25− T cells; TAT-Cre treated T cells, TGFβ plus IL-6", "value": "strongly impaired"},
      {"measurement": "HF concentration that inhibited expression of IL-17", "setting": "CD4+ CD25− T cells; TGFβ/IL-6 treated T-cells", "value": "2.5 to 10 nM and 2.2 to 10 nM"},
      {"measurement": "IL-17 production", "setting": "CD4+ CD25− T cells; low concentrations of HF (1-10 nM)", "value": "strongly reduced"},
      {"measurement": "fold lower doses for effects on Th17 differentiation than for general inhibition of T-cell proliferation and differentiation", "setting": "CD4+ CD25− T cells; versus proliferation and Th1 or Th2 differentiation", "value": "5- to 10 fold and ~10 fold"}
    ]}
  ]
}
